Laboratory results from patent US9868738B2, “Diazine-fused amidines as BACE inhibitors, compositions, and their use” (Merck Sharp & Dohme Corp., priority 2014, dated 2018).

Legend:
[1] = molecular target: soluble human BACE1 catalytic domain (Homo sapiens (Human), UniProt P56817); test: BACE-1 Ki Assay (BACE-1 HTRF FRET Assay); assay type: biochemical; settings: Ki calculated from IC50 using the Cheng-Prusoff equation; QSY7-APPswe-Eu substrate 200 nM, pH 5.0
Description: In another embodiment, the compounds of the invention comprise the example compounds shown in the table below, or a tautomer thereof, or a pharmaceutically acceptable salt of said compound or said tautomer. Examples 2 to 42 were prepared using the method similar to Ex. 1. Example 44 to 51 were synthesized using the method similar to Ex. 43. BACE-1 values reported in this table were measured using BACE-1 Ki Assay (BACE-1 HTRF FRET Assay).
• Reagents: Na^+-Acetate pH 5.0; 1% Brij-35; Glycerol; Dimethyl Sulfoxide (DMSO); Recombinant human soluble BACE1 catalytic domain (>95% pure); APP Swedish mutant peptide substrate (QSY7-APP^swe-Eu): QSY7-EISEVNLDAEFC-Europium-amide.
A homogeneous time-resolved FRET assay can be used to determine IC50 values for inhibitors of the soluble human BACE1 catalytic domain. This assay monitors the increase of 620 nm fluorescence that resulted from BACE1 cleavage of an APPswedish APP^swe mutant peptide FRET substrate (QSY7-EISEVNLDAEFC-Europium-amide). This substrate contains an N-terminal QSY7 moiety that serves as a quencher of the C-terminal Europium fluorophore (620 nm Em). In the absence of enzyme activity, 620 nm fluorescence is low in the assay and increased linearly over 3 hours in the presence of uninhibited BACE1 enzyme. Inhibition of BACE1 cleavage of the QSY7-APP^swe-Eu substrate by inhibitors is manifested as a suppression of 620 nm fluorescence.
Varying concentrations of inhibitors at 3× the final desired concentration in a volume of 10 ul are preincubated with purified human BACE1 catalytic domain (3 nM in 10 μl) for 30 minutes at 30° C. in reaction buffer containing 20 mM Na-Acetate pH 5.0, 10% glycerol, 0.1% Brij-35 and 7.5% DSMO. Reactions are initiated by addition of 10 μl of 600 nM QSY7-APP^swe-Eu substrate (200 nM final) to give a final reaction volume of 30 μl in a 384 well Nunc HTRF plate. The reactions are incubated at 30° C. for 1.5 hours. The 620 nm fluorescence is then read on a Rubystar HTRF plate reader (BMG Labtechnologies) using a 50 millisecond delay followed by a 400 millisecond acquisition time window. Inhibitor IC50 values are derived from non-linear regression analysis of concentration response curves. Ki values are then calculated from IC50 values using the Cheng-Prusoff equation using a previously determined […] of 8 μM for the QSY7-APP^swe-Eu substrate at BACE1.

[2] = molecular target: purified human autoBACE-2 (Homo sapiens (Human), UniProt Q9Y5Z0); test: BACE-2 Assay (BACE-HTRF assay); assay type: biochemical; settings: Ki calculated from IC50 using the Cheng-Prusoff equation; QSY7-EISEVNLDAEFC-Eu-amide substrate 200 nM, pH 5.0
purified human autoBACE-2, sequence (Q9Y5Z0 63-473 limits assumed): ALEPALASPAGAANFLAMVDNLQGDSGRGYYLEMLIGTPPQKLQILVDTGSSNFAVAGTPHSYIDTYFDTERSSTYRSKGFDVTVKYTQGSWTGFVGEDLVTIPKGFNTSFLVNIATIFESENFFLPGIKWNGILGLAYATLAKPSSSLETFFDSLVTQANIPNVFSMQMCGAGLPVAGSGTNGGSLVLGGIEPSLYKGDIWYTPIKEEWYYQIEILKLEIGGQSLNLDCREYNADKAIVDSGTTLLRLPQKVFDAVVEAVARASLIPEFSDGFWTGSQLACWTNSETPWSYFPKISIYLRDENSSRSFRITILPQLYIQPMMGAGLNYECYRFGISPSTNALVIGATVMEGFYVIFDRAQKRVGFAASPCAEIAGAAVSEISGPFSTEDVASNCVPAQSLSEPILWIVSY
Description: Inhibitor IC50s at purified human autoBACE-2 are determined in a time-resolved endpoint proteolysis assay that measures hydrolysis of the QSY7-EISEVNLDAEFC-Eu-amide FRET peptide substrate (BACE-HTRF assay). BACE-mediated hydrolysis of this peptide results in an increase in relative fluorescence (RFU) at 620 nm after excitation with 320 nm light. Inhibitor compounds, prepared at 3× the desired final concentration in 1×BACE assay buffer (20 mM sodium acetate pH 5.0, 10% glycerol, 0.1% Brij-35) supplemented with 7.5% DMSO are pre-incubated with an equal volume of autoBACE-2 enzyme diluted in 1×BACE assay buffer (final enzyme concentration 1 nM) in black 384-well NUNC plates for 30 minutes at 30° C. […] DMSO is present at […] final concentration in the assay. Following laser excitation of sample wells at 320 nm, the fluorescence signal at 620 nm is collected for 400 ms following a 50 μs delay on a RUBYstar HTRF plate reader (BMG Labtechnologies). Raw RFU data is normalized to maximum (1.0 nM BACE/DMSO) and minimum (no enzyme/DMSO) RFU values. IC50s are determined by nonlinear regression analysis (sigmoidal dose response, variable slope) of percent inhibition data with minimum and maximum values set to 0 and 100 percent respectively. Similar IC50s are obtained when using raw RFU data. The Ki values are calculated from the IC50 using the Cheng-Prusoff equation.

soluble human BACE1 catalytic domain, sequence (P56817 75-416): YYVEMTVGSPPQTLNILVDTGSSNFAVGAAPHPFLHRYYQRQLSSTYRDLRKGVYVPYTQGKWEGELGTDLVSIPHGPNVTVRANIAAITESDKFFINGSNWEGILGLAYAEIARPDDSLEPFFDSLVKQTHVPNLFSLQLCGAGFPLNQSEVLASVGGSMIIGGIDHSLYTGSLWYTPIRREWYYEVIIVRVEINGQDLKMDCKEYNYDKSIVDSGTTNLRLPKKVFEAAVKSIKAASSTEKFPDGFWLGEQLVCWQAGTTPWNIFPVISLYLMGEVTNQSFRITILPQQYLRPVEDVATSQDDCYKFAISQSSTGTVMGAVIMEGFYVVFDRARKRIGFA

Which results are given for `Cc1ncc2c(n1)C[C@@](C)(c1sc(-c3cccc(-c4ncno4)c3)cc1Cl)NC2=N` [Example 29, (7S)-7-{3-chloro-5-[3-(1,2,4-oxadiazol-5-yl)phenyl]thiophen-2-yl}-2,7-dimethyl-7,8-dihydropyrido[4,3-d]pyrimidin-5(6H)-imine]?
Ki [1]: 482 nM; Ki [2]: 79.7 nM

What does the source list for `C[C@@]1(c2cc(-c3cccc(C#N)c3)cs2)Cc2nc(C3CC3)ncc2C(=N)N1` [Example 32, 3-{5-[(7S)-2-cyclopropyl-5-imino-7-methyl-5,6,7,8-tetrahydropyrido[4,3-d]pyrimidin-7-yl]thiophen-3-yl}benzonitrile]?
Ki [1]: 128 nM; Ki [2]: 65.6 nM

With `COc1cccc2cc(-c3csc([C@]4(C)Cc5nc(C6CC6)ncc5C(=N)N4)c3)[nH]c12` [Example 33, (7S)-2-cyclopropyl-7-[4-(7-methoxy-1H-indo1-2-yl)thiophen-2-yl]-7-methyl-7,8-dihydropyrido[4,3-d]pyrimidin-5(6H)-imine] as the compound, how does the Ki [1] read?
The Ki was 38.2 nM.

And the Ki [2]?
The Ki was 4.8 nM.

Which Ki [1] does the source give for `C[C@@]1(c2cc(-c3cccc(-c4nnco4)c3)cs2)Cc2nc(C3CC3)ncc2C(=N)N1` [Example 34, (7S)-2-cyclopropyl-7-methyl-7-{4-[3-(1,3,4-oxadiazol-2-yl)phenyl]thiophen-2-yl}-7,8-dihydropyrido[4,3-d]pyrimidin-5(6H)-imine] here?
Its Ki is 85 nM.

And the Ki [2]?
Its Ki is 215 nM.

Which Ki [1] does the source give for `C[C@@]1(c2cc(-c3cncc(C#N)c3)cs2)Cc2nc(C3CC3)ncc2C(=N)N1` [Example 35, 5-{5-[(7S)-2-cyclopropyl-5-imino-7-methyl-5,6,7,8-tetrahydropyrido[4,3-d]pyrimidin-7-yl]thiophen-3-yl}pyridine-3-carbonitrile] here?
The Ki was 224 nM.

And the Ki [2]?
The Ki was 142 nM.

`C[C@@]1(c2sc(-c3cccc(C#N)c3)cc2Cl)Cc2nc(C3CC3)ncc2C(=N)N1` [Example 36, 3-{4-chloro-5-[(7S)-2-cyclopropyl-5-imino-7-methyl-5,6,7,8-tetrahydropyrido[4,3-d]pyrimidin-7-yl]thiophen-2-yl}benzonitrile] was tested. Which Ki [1] did it give?
Its Ki is 48.9 nM.

And the Ki [2]?
The Ki was 21.5 nM.

With `C[C@@]1(c2sc(-c3cncc(C#N)c3)cc2Cl)Cc2nc(C3CC3)ncc2C(=N)N1` [Example 37, 5-{4-chloro-5-[(7S)-2-cyclopropyl-5-imino-7-methyl-5,6,7,8-tetrahydropyrido[4,3-d]pyrimidin-7-yl]thiophen-2-yl}pyridine-3-carbonitrile] as the compound, how does the Ki [1] read?
The Ki was 94.7 nM.

And the Ki [2]?
The Ki was 44.2 nM.

Which results are given for `COc1cccc2cc(-c3cc(Cl)c([C@]4(C)Cc5nc(C6CC6)ncc5C(=N)N4)s3)[nH]c12` [Example 38, (7S)-7-[3-chloro-5-(7-methoxy-1H-indo1-2-yl)thiophen-2-yl]-2-cyclopropyl-7-methyl-7,8-dihydropyrido[4,3-d]pyrimidin-5(6H)-imine]?
Ki [1]: 22.3 nM; Ki [2]: 2 nM

Which Ki [1] does the source give for `COc1cccc2cc(-c3csc([C@]4(C)Cc5nc(C(F)(F)F)ncc5C(=N)N4)c3)[nH]c12` [Example 39, (7S)-7-[4-(7-methoxy-1H-indo1-2-yl)thiophen-2-yl]-7-methyl-2-(trifluoromethyl)-7,8-dihydropyrido[4,3-d]pyrimidin-5(6H)-imine] here?
The Ki was 28.9 nM.

And the Ki [2]?
Its Ki is 1.5 nM.

Which Ki [1] does the source give for `C[C@@]1(c2cc(-c3cccc(C#N)c3)cs2)Cc2nc(C(F)(F)F)ncc2C(=N)N1` [Example 40, 3-{5-[(7S)-5-imino-7-methyl-2-(trifluoromethyl)-5,6,7,8-tetrahydropyrido[4,3-d]pyrimidin-7-yl]thiophen-3-yl}benzonitrile] here?
The Ki was 58.2 nM.

And the Ki [2]?
The Ki was 23.1 nM.

For `C[C@@]1(c2cc(-c3cncc(C#N)c3)cs2)Cc2nc(C(F)(F)F)ncc2C(=N)N1` [Example 41, 5-{5-[(7S)-5-imino-7-methyl-2-(trifluoromethyl)-5,6,7,8-tetrahydropyrido[4,3-d]pyrimidin-7-yl]thiophen-3-yl}pyridine-3-carbonitrile], which Ki [1] is on record?
The Ki was 208 nM.

What about the Ki [2] of the same compound?
Its Ki is 97.7 nM.

How did the Ki [1] turn out when `C[C@@]1(c2cc(-c3cccc(-c4nnco4)c3)cs2)Cc2nc(C(F)(F)F)ncc2C(=N)N1` [Example 42, (7S)-7-methyl-7-{4-[3-(1,3,4-oxadiazol-2-yl)phenyl]thiophen-2-yl}-2-(trifluoromethyl)-7,8-dihydropyrido[4,3-d]pyrimidin-5(6H)-imine] was run?
The Ki was 49.6 nM.

What about the Ki [2] of the same compound?
The Ki was 121 nM.

`C[C@@]1(c2cc(NC(=O)c3ccc(F)cn3)ccc2F)Cc2ncncc2C(=N)N1` [Example 43, 5-fluoro-N-{4-fluoro-3-[(7S)-5-imino-7-methyl-5,6,7,8-tetrahydropyrido[4,3-d]pyrimidin-7-yl]phenyl}pyridine-2-carboxamide] was tested. Which Ki [1] did it give?
Its Ki is 9.4 nM.

And the Ki [2]?
Its Ki is 3 nM.

Which results are given for `Cc1ncc2c(n1)C[C@@](C)(c1cc(NC(=O)c3ccc(F)cn3)ccc1F)NC2=N` [Example 44, 5-fluoro-N-{4-fluoro-3-[(7S)-5-imino-2,7-dimethyl-5,6,7,8-tetrahydropyrido[4,3-d]pyrimidin-7-yl]phenyl}pyridine-2-carboxamide]?
Ki [1]: 16.8 nM; Ki [2]: 4.5 nM

With `Cc1ncc2c(n1)C[C@@](C)(c1cc(NC(=O)c3ccc(Cl)cn3)ccc1F)NC2=N` [Example 45, 5-chloro-N-{4-fluoro-3-[(7S)-5-imino-2,7-dimethyl-5,6,7,8-tetrahydropyrido[4,3-d]pyrimidin-7-yl]phenyl}pyridine-2-carboxamide] as the compound, how does the Ki [1] read?
Its Ki is 10.4 nM.

What about the Ki [2] of the same compound?
The Ki was 4.2 nM.

Which results are given for `Cc1ncc2c(n1)C[C@@](C)(c1cc(NC(=O)c3ccc(C(F)(F)F)cn3)ccc1F)NC2=N` [Example 46, N-{4-fluoro-3-[(7S)-5-imino-2,7-dimethyl-5,6,7,8-tetrahydropyrido[4,3-d]pyrimidin-7-yl]phenyl}-5-(trifluoromethyl)pyridine-2-carboxamide]?
Ki [1]: 18.1 nM; Ki [2]: 48.3 nM

`COc1ccc(C(=O)Nc2ccc(F)c([C@]3(C)Cc4nc(C)ncc4C(=N)N3)c2)nc1` [Example 47, N-{4-fluoro-3-[(7S)-5-imino-2,7-dimethyl-5,6,7,8-tetrahydropyrido[4,3-d]pyrimidin-7-yl]phenyl}-5-methoxypyridine-2-carboxamide] was tested. Which Ki [1] did it give?
Its Ki is 15.4 nM.

And the Ki [2]?
The Ki was 15.3 nM.

Which results are given for `C[C@@]1(c2cc(NC(=O)c3ccc(F)cn3)ccc2F)Cc2nc(C3CC3)ncc2C(=N)N1` [Example 48, N-{3-[(7S)-2-cyclopropyl-5-imino-7-methyl-5,6,7,8-tetrahydropyrido[4,3-d]pyrimidin-7-yl]-4-fluorophenyl}-5-fluoropyridine-2-carboxamide]?
Ki [1]: 13.1 nM; Ki [2]: 3 nM

What does the source list for `C[C@@]1(c2cc(NC(=O)c3ccc(C(F)(F)F)cn3)ccc2F)Cc2nc(C3CC3)ncc2C(=N)N1` [Example 49, N-{3-[(7S)-2-cyclopropyl-5-imino-7-methyl-5,6,7,8-tetrahydropyrido[4,3-d]pyrimidin-7-yl]-4-fluorophenyl}-5-(trifluoromethyl)pyridine-2-carboxamide]?
Ki [1]: 20.5 nM; Ki [2]: 34.2 nM

Which Ki [1] does the source give for `Cc1ncc2c(n1)C[C@](c1cc(NC(=O)c3ccc(C#N)cn3)ccc1F)(C(F)F)NC2=N` [Example 50, 5-cyano-N-{3-[(7S)-7-(difluoromethyl)-5-imino-2-methyl-5,6,7,8-tetrahydropyrido[4,3-d]pyrimidin-7-yl]-4-fluorophenyl}pyridine-2-carboxamide] here?
The Ki was 7.1 nM.

What about the Ki [2] of the same compound?
The Ki was 10.9 nM.

`C[C@@]1(c2cc(NC(=O)c3ccc(C#N)cn3)ccc2F)Cc2nccnc2C(=N)N1` [Example 51, 5-cyano-N-{4-fluoro-3-[(7S)-5-imino-7-methyl-5,6,7,8-tetrahydropyrido[3,4-b]pyrazin-7-yl]phenyl}pyridine-2-carboxamide] was tested. Which Ki [1] did it give?
Its Ki is 62.7 nM.

And the Ki [2]?
Its Ki is 207 nM.
